Test results: patent publication US12036193B2, “Synergistic bioactive compositions for treating neurological disorders” (priority 2019, dated 2024)

How the values were obtained:
[1] = Rat feed consumption in global ischemia reperfusion induced brain injury study; conditions: Standard 9.3 mg/kg, Agmatine sulphate 310 mg/kg, Bio-optimized PEA 372 mg/kg, combination 310+372 mg/kg, p.o. daily
Interleukin - 6 = test: Rat Interleukin-6 level after global cerebral ischemia/reperfusion; format: in vivo, Wistar rats; conditions: mean ± SEM, n=6; oral 10 days, 30 min ischemia on 7th day + 72 hrs reperfusion; Standard 9.3, Agmatine sulphate 310, Bio-optimized PEA 372, combination 310+372 mg/kg; I/R control 121.83 ± 1.65
[2] = Rat body weight in global ischemia reperfusion induced brain injury study; conditions: n=6, Standard 9.3 mg/kg, Agmatine sulphate 310 mg/kg, Bio-optimized PEA 372 mg/kg, combination 310+372 mg/kg, p.o. daily
TNF alpha = test: Rat TNF alpha level after global cerebral ischemia/reperfusion; format: in vivo, Wistar rats; conditions: mean ± SEM, n=6; oral 10 days, 30 min ischemia on 7th day + 72 hrs reperfusion; Standard 9.3, Agmatine sulphate 310, Bio-optimized PEA 372, combination 310+372 mg/kg; I/R control 172.17 ± 6.35

N=C(N)NCCCCN.O=S(=O)(O)O [Agmatine sulphate, 1-(4-Aminobutyl)guanidine sulfate]
Feed Consumption, Week 01 [1]: 99.57 ± 1.19 gm | Interleukin - 6 Levels (Interleukin - 6): 91.39 ± 0.92 pg/mL | Body Weight, Week 01 ([2]; Week 01, mean ± SEM): 224.33 ± 0.42 gm | Body Weight, Basal ([2]; basal, mean ± SEM): 215.00 ± 0.73 gm | TNF alpha Level (TNF alpha): 142.00 ± 1.53 pg/mL
